No end group written: not given here.
How the values were obtained:
[1] = test system: WprA and Bpr proteases (B. subtilis supernatants); test: Kinetic (time course) maturation assay of Imat1^3T in 168, WprA and Bpr KO supernatants; assay type: biochemical, Bacillus subtilis; conditions: samples inactivated at different times, Rap^3T thermal shift
Excerpt: Fig 2 Propeptide maturation of Phr^3T and Phr^105 propeptides. Thermal shift assay experiments for maturation effect of supernatants from B. subtilis 168 and WB800 strains in immature version of the pheromones codified in Phr^3T (a) and Phr^105 (e), mean values of triplicates are plotted, 3 standard deviations from negative control maturation (WB800 supernatant) are highlighted in red. Error bars mark from the minimum to maximum values observed in the triplicates. Thermal shift assays with supernatants from B. subtilis 168, WB800, and individual protease mutant strains in maturation of peptides Imat2^3T(b), Imat1^105 (f), Imat2^105 (g) and Imat3^105 (h), mean values of triplicates are plotted, 3 standard deviations from negative control maturation (WB800 supernatant) are highlighted in red. Error bars mark from the minimum to maximum values observed in the triplicates. (c) Thermal shift slopes of the effect of individual mutations of 8 protease genes on Imat1^3T peptide maturation. (d) Kinetic assays comparing Imat1^3T peptide maturation in 168 supernatant and supernatants of WprA and Bpr protease KO mutants, relative maturation was calculated as fluorescence of the peak corresponding with the mature pheromone divided by the fluorescence of the peak corresponding with the non-maturated pheromone. […]

[2] = test system: Rap^3T; test: Microscale thermophoresis (MST) of peptide binding to Rap^3T; parameters: species or system Bacillus phage phi3T; conditions: MST
Protocol: Rap^3T was fluorescently labeled with NT-647 amine reactive dye from the Monolith NT Protein Labeling kit RED-NHS (NanoTemper Technologies) according to the manufacturer’s instructions. Briefly, 100 μm solution of the protein was mixed with 3× dye solution, incubated 30 min in dark, and then purified by gravity in a 5 ml size exclusion column equilibrated with dialysis buffer (20 mM Tris-HCl (pH 8), 250 mM NaCl) supplemented with 0.1% pluronic and 5% glycerol to remove free dye. Rap^105 was fluorescently labeled using His-Tag Labeling Kit RED-tris-NTA 2nd Generation. Briefly, 500 nM of protein was mixed with 5 μm dye in PBS supplemented with 0,02% of tween incubated in dark at room temperature for 30 min and centrifuged at 10,000 g for 10 min at 4°C, transferred to a fresh tube, and used in the assays immediately. Labeled proteins were used at a final optimized concentration of 20 nM in the case of Rap^3T and 250 nM in the case of Rap^105. For the measurements of EC50, a 16-point 2-fold serial dilution (ranged from 2 to 3 × 10^−5 μm) of the peptides were prepared in presence of the corresponding labeled Rap protein. After 15-min incubation at room temperature, samples were filled into standard Capillaries (K005, NanoTemper Technologies) and MST measurements were performed on a Monolith NT.115 (NanoTemper Technologies) in RED channel using 60% to 75% of LED excitation power and medium or high MST power for Rap^3T or Rap^105, respectively. […] Data analyses were performed with M.O. Affinity Analysis software (NanoTermper Technologies) applying cooperative (Hill coefficient) and non-cooperative (Kd model) models, with the first one yielding better fitting values.

[3] = test system: extracellular proteases in supernatants of B. subtilis 168, WB800 and individual protease mutants; test: Peptide maturation assay with B. subtilis supernatants, read by Rap^3T thermal shift; assay type: biochemical, Bacillus subtilis; conditions: 100 μm peptide
Protocol: Overnight cultures of either B. subtilis strains 168, WB800, Δmpr, Δbpr, ΔaprE, Δepr, ΔwprA, Δvpr, ΔnprB, ΔnprE in GM1 media were diluted 1:20 into GM1 media and incubated at 37°C at 250 rpm. […] After incubation, reaction was stopped by incubation at 95°C for 5 min and sample was kept and used in Thermal Shift Assays (see before). In the kinetic assays, samples were inactivated at different times by incubation at 95°C for 5 min. Experiments were validated by experimental triplicates of 3 biological replicates.
The thermal shift assay was conducted in a CFX Opus Real-Time PCR system (Biorad). Samples of 20 μl containing 20× Sypro Orange (Sigma-Aldrich) and 50 μm of protein in a 20 mM Tris (pH 8) and 250 mM NaCl buffer or filtered supernatant in peptide maturation assays (see below) were loaded in 96-well PCR plates. In the cases where peptide interaction was analyzed, synthetic peptides at a final concentration of 100 μm were added to the assays. Samples were heated from 20 to 85°C in steps of 1 degree. Fluorescent intensity was plotted versus temperature and integrated with either CFX Opus Real-Time PCR automate model or GraphPad Prism software using a Boltzmann model to calculate melting temperatures.

[4] = test system: Rap^BA3; conditions: Rap^BA3 overexpression; cited from earlier work
[5] = target: Rap^3T (Bacillus phage phi3T); test: SEC-MALS; Rap^3T at 1 mg/ml, 50 mM Hepes (pH 7), 150 mM NaCl; apo, or preincubated with 100 μm pheromone (SRGHTS or RRGHTA) with 10 μm pheromone in the mobile phase
[6] = target: Rap^105 labelled through its His tag (MST) (Bacillus phage phi105); test: MST; Rap^105 labelled with RED-tris-NTA on the His tag at 250 nM; peptide in a 16-point 2-fold dilution from 2 to 3 x 10^-5 μm; PBS with 0,02% tween; 15 min at room temperature; Hill model
[7] = target: Rap^105 (Bacillus phage phi105); test: thermal shift assay; Sypro Orange, 50 μm protein, 100 μm synthetic peptide, 20 mM Tris (pH 8), 250 mM NaCl (or filtered supernatant in the maturation assays), heated from 20 to 85°C
[8] = target: T1, Rap^105 labelled through its His tag (MST) (Bacillus phage phi105); test: MST
T1 chain: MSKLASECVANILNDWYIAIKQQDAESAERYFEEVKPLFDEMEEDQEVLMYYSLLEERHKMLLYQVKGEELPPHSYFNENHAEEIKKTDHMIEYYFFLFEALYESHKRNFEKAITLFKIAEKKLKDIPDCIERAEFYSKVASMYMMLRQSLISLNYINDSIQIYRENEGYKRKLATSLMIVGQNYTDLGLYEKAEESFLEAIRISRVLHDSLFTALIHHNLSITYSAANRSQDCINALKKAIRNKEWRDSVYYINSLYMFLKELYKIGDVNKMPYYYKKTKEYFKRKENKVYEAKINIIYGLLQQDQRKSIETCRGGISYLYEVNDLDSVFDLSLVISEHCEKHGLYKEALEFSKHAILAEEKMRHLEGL

RRGHTASIGFTDGHSYDIA [Imat1^3T]
time course maturation with Δbpr supernatant [1]: fully mature the peptide at longer incubation times | time course maturation with ΔwprA supernatant [1]: minimal maturation levels even at these times | binding to Rap^3T (MST), in words [2]: weak affinity | maturation by B. subtilis 168 supernatant (Rap^3T thermal shift) ([3]; 1 h room temperature in filtered supernatant (GM1, OD600 0.5), stopped 95°C 5 min): effectively processed | maturation by supernatants of individual protease mutants of B. subtilis 168 (Rap^3T thermal shift) ([3]; 1 h room temperature, 8 single protease mutants): the supernatants from the ΔwprA and Δbpr mutants showed 2 slopes | maturation by B. subtilis WB800 (protease-deficient) supernatant (Rap^3T thermal shift) ([3]; 1 h room temperature, strain mutant in nprE, nprB, aprE, epr, bpr, mpr, vpr, wrpA): no increase in Rap^3T stabilization was observed

RRGQT [peptide that relieves Rap^BA3 repression in previous work]
relief of Rap^BA3 repression of sporulation and competence [4]: repression is relieved

Rap^3T (receptor)
stoichiometry N [5]: 2

B1: ERPVGT (peptide)
peptide: ERPVGT
EC50 [6]: 34 nM | stabilization of the denaturation temperature [7]: 9 degrees | EC50 [8]: 38.2 nM

Source: publication PMC11343458, “Extracellular proteolysis of tandemly duplicated pheromone propeptides affords additional complexity to bacterial quorum sensing” (PLOS Biology, 2024)
